Experimental data: patent publication US6942963B1, “Methods for identifying treatments for neurotoxicity in Alzheimer's disease caused by β-amyloid peptides” (Massachusetts Institute of Technology, priority 1997, dated 2005)
Entries after “also recorded” stand apart in the source; their conditions may differ. Like-named read-outs stand apart in the source and are kept apart here. Non-standard residues stand in square brackets, D forms with d. Residues, ends and D or L forms follow the SMILES beside them.

Key:
[1] = test system: voltage-gated calcium channels; experiment: Previous patch-clamp experiments on β-amyloid peptide calcium influx; type: cell-based
hNT cells [2] = experiment: Membrane depolarization of hNT cells by aggregated Aβ1-42 (DiBAC4(3) fluorescence); type: cell-based, human; details: for % ΔF in presence of addition / Δ EM in presence of addition: aggregated Aβ1-42 20 μM plus the named addition, [Ca^2+] 2 mM, Na^+; for inhibition of membrane depolarization by aggregated Aβ1-42: simultaneous presence, separately or together, summary statement
Protocol: Changes in membrane potential were measured using the fluorescent potentiometric probe DiBAC4(3), (Molecular Probes, Inc., Eugene, Oreg.). This dye, bis-(1,3-dibutylbarbituric acid)trimethine oxonol, detects membrane depolarization, because it enters depolarized cells and binds to intracellular proteins or membranes. […] Hyperpolarization results in extrusion of the anionic dye and thus a decrease in fluorescence. Our measurements use two dyes, fura-2 and DiBAC4(3), since these dyes have excitation wavelengths that are far apart, but have similar emission wavelengths. DiBAC4(3) was added to fura-2AM loaded hNT cells at a concentration of 100 nM in Tyr2Ca. Rapidly alternating measurements of fura-2 (excited at 340 & 380 nm) and DiBAC4(3) (excited at 490 nm) were performed using emission at 516 nm. Both dyes were measured using the special “Fura2-Fluo3” filter set 7400 from Chroma Technology (Brattleboro, Vt.), a Zeiss Axiovert 100 inverted microscope and a photometry system (model “Delta Ram” from Photon Technology International, Inc., Monmouth Junction, N.J.).
The bis-oxonol dye DiBAC4(3) was used as an indicator of transmembrane electrical potential changes (Langheinrich and Daut, J. Physiol. 502:397-408, 1997) when our hNT cells were treated with, for example, the β-amyloid peptide Aβ1-42. The use of this dye enabled us to monitor groups of 5-15 neurons, rather than single cells as would be the case with patch clamping methods. We expected great variability from cell to cell, as was found in our earlier patch clamp work (Sanderson et al., Brain Res. 744:7-14, 1997). The method has been used by many laboratories for the determination of membrane potentials in different cell types. Fluorescence is increased upon membrane depolarization as more dye enters the cytosol, resulting in increased binding to proteins (Braiuner et al., Biochim. Biophys. Acta 771:[…], 1984). Partitioning of bis-oxonol dye between the plasma membrane and the cytosol follows the Nernst equation (Langheinrich and Daut, 1997). Unless otherwise indicated, all measurements were carried out in Tyrode's solution containing 2 mM Ca.
We calibrated the gross fluorescence as a function of membrane potential by treating a culture of hNT neurons, bathed in Tyrode's 2Ca buffer with the usual 3 mM K^+, containing 97 nM DiBAC4(3), with Tyrode's 2Ca buffer containing 40 mM KCl. We measured the gross fluorescence at excitation=490 nm and emission=510 nm for the depolarization by KCl and for depolarization by the Aβ1-42 peptide. We used the formula proposed by Langheinrich and Daut, 1997: % ΔF=(1−Fmin/Fmax)*100=ΔEMmV
where Fmin=fluorescence before treatment, Fmax=fluorescence during treatment, ΔEM mV is the change in membrane potential brought about by the treatment. The calculation based on the expected depolarization by changing from 3 mM KCl to 40 MM KCl gave a value of ΔEM=3.8 mV/1% ΔF.
Groups of hNT neuronal cells (5-17) were exposed to Aβ1-42 (20 μM) that had been incubated at 37° C. for 48 hours; 97 nM DiBAC4(3) was present. Fluorescence was measured as described above; Ex=490 nm, Em=510 nm.

[3] = test system: βAP25-35-induced calcium influx, hNT cells; experiment: βAP25-35-induced calcium influx in hNT cells: effect of channel antagonists and decoy peptides; type: cell-based, human; details: for effect on βAP25-35 calcium influx at molar ratio: filtered stocks; for effect on increase in internal calcium concentration due to βAP25-35: decoy peptide mixed with βAP25-35 at ratio 1:1 (20 μM+20 μM), hNT cells
[4] = test system: βAP1-42-induced calcium influx, hNT cells; experiment: βAP1-42 (Aβ1-42) aggregate-induced calcium influx in hNT cells: effect of decoy peptides and channel blockers; type: cell-based, human; details: for effect on βAP1-42 calcium influx: βAP1-42 25 μM coincubated with equimolar decoy peptide at 37° C. for 44 hours; for inhibition of calcium influx caused by aggregated Aβ1-42: summary statement, concentration not given
hNT cells [5] = experiment: Internal calcium concentration [Ca2+]int in hNT cells (fura-2) on exposure to β-amyloid peptide or test agent alone; type: cell-based, human; details: hNT cells, decoy peptide alone at 20 μM, filtered stocks, Tyrode's/2 mM Ca
βAP25-35 = target: T1, βAP25-35 (Homo sapiens, UniProt P05067); experiment: Aggregation rate of βAP25-35 by light scattering at 500 nm; type: biochemical; details: decoy peptide at approximately equimolar concentration, Tyrode's/2 mM Ca^2+, light scattering 500 nm
T1 construct: made in house; host or cells: chemical peptide synthesis (BioPolymers Laboratory, MIT), HPLC purified

[6] = type: physicochemical; details: water
βAP1-42 = target: T2, βAP1-42 (Homo sapiens, UniProt P05067); experiment: Aggregation rate of βAP1-42 by light scattering at 500 nm; type: biochemical; details: decoy peptide at 1:1 molar ratio, Tyrode's/2 mM Ca^2+, light scattering 500 nm
T2 construct: βAP1-42 (Aβ1-42); purchased Quality Control Biochemicals; host or cells: synthetic peptide
T2 sequence (P05067 672-713): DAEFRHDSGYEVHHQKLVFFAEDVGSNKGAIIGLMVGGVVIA

Row | Molecule | effect on increase in internal calcium concentration due to βAP25-35 [3] | effect on βAP1-42 calcium influx ([4]; hNT cells) | effect of decoy peptide by itself on cytosolic calcium concentrations (hNT cells [5]) | effect on aggregation rate of βAP25-35 (βAP25-35) | inhibition of calcium influx caused by aggregated Aβ1-42 [4] | % ΔF in presence of addition (hNT cells [2]) [%] | Δ EM in presence of addition (hNT cells [2]) | inhibition of membrane depolarization by aggregated Aβ1-42 (hNT cells [2]) | also measured
1 | [Cl][Cd][Cl] [cadmium chloride] | – | – | – | – | – | – | – | – | block of β-amyloid peptide calcium influx [1]: did not block the calcium influx; effect on membrane depolarization by aggregated Aβ1-42 (hNT cells [2]): did not prevent membrane depolarization
2 | ^+NH3-TVIR^+TIAAA-COO^− (TVIRTIAAA) [DP8] | reduced or abolished the increase in the internal calcium concentration | reduced or abolished the effect of βAP1-42 on the calcium influx | no effect on cytosolic calcium concentrations | did not reduce the aggregation rate of βAP25-35 | – | – | – | – | effect on βAP25-35 calcium influx at molar ratio ([3]; DP8:βAP25-35 0.2:1 (5 mM DP8+20 mM βAP25-35)): modestly reduced; effect on βAP25-35 calcium influx at molar ratio ([3]; DP8:βAP25-35 1:1 (10 mM DP8+10 mM βAP25-35)): reduce or abolish the effect of the β-amyloid peptide; effect on βAP25-35 calcium influx at molar ratio ([3]; DP8:βAP25-35 2:1 (20 mM DP8+11 mM βAP25-35)): reduce or abolish the effect of the β-amyloid peptide
3 | D-AP5 | – | – | – | – | inhibited | 10.4 | +39.5 mV | not inhibited | effect on calcium influx caused by aggregated Aβ1-42 ([4]; hNT cells, aggregated 20 μM Aβ1-42, D-AP5 50 μM): largely, but not completely, abolished calcium influx; also recorded: does inhibit calcium influx; effect on membrane depolarization by aggregated Aβ1-42 (hNT cells [2]; hNT cells, D-AP5 50 μM): did not interfere with the depolarization phenomenon; also recorded: does not block membrane depolarization
4 | CC[C@@H](C)[C@@H](N)C(=O)N[C@H](C)C(=O)N[C@H](C)C(=O)NCC(=O)N[C@@H](C(=O)N[C@@H](C(=O)NCC(=O)NCC(=O)NCC(=O)O)[C@H](C)O)[C@H](C)CC [DP1, ^+NH3-IAAGITGGG-COO^−] (H-[dI][dA][dA]G[dI][dT]GGG-OH) | reduced or abolished the increase in the internal calcium concentration | – | raise cytosolic calcium concentrations somewhat | – | – | – | – | – | solubility [6]: water soluble
5 | N#Cc1cc2c(cc1[N+](=O)[O-])=NC(=O)C(=O)N=2 [CNQX, 6-cyano-7-nitroquinoxaline-2,3-dione] | – | – | – | – | inhibited | 17.0 | +64.6 mV | not inhibited | [Ca^2+]int when antagonist added after βAP25-35 exposure ([3]; cells first exposed to 21 μM βAP25-35 (270% of control), then βAP25-35 plus CNQX 22 μM): fell to control levels; block of calcium influx into hNT neuronal cells caused by βAP25-35 ([3]; concentration not stated): can be blocked; effect on βAP25-35-induced calcium influx ([3]; βAP25-35 21 μM, CNQX at 22 μM, applied together): completely prevented; effect on calcium influx / cytosolic calcium caused by aggregated Aβ1-42 ([4]; hNT cells, aggregated Aβ1-42, 20 μM CNQX added after desensitization): completely inhibited; also recorded: lowers the remaining calcium level to the original control value; effect on membrane depolarization (DiBAC4(3) fluorescence plateau) by aggregated Aβ1-42 (hNT cells [2]; hNT cells, CNQX (20 μM) added after Aβ1-42aggr): little change in fluorescence; also recorded: remained unchanged; also recorded: did not significantly change fluorescence
6 | ^+NH3.T.P.I.R^+.T.P.A.P.A.COO^− (H-[dT][dP][dI][dR][dT][dP][dA][dP][dA]-OH; also: modified) [DP16] | – | reduced or abolished the effect of βAP1-42 on the calcium influx | – | reduced the aggregation rate of βAP25-35 | – | – | – | – | reduction of aggregation rate of βAP1-42 (βAP1-42): about 50%
